The source of these data is patent US11479539B2, “Small molecule modulators of the BTB domain of Keap1” (MedImmune Limited, priority 2017, dated 2022).

The structures appear in SMILES notation.

Sequence of Keap1 (Q14145 whole entry): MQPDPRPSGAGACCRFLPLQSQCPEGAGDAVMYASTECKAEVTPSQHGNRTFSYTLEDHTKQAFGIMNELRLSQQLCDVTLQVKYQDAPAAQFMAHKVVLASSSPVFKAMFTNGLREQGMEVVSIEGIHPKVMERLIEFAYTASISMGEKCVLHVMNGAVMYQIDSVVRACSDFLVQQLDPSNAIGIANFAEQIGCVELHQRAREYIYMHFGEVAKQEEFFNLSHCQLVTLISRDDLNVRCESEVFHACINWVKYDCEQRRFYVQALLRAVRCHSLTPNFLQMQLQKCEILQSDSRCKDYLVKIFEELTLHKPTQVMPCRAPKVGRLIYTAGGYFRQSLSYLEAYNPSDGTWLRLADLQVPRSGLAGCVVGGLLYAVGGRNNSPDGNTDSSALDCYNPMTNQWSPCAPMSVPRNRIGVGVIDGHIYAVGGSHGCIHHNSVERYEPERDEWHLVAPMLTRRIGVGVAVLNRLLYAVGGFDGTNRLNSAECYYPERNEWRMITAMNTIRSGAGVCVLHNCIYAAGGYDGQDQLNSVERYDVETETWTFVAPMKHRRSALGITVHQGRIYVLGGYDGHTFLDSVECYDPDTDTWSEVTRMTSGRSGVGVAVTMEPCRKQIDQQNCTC

This test addresses Keap1 (Homo sapiens (Human), UniProt Q14145). As to the kind of experiment: HEK293 ARE luciferase assay. The note with it: HEK-293 ARE firefly luciferase transiently transfected cells; 18 h incubation; mean of 1 to 20 individual measurements. It is filed as cell-based. The text has this:
The purpose of this assay is to identify small molecule inhibitors of Keap1, preventing Keap1 binding to Nrf2, and thus activating the Nrf2 signalling pathway in HEK-293 ARE firefly luciferase transiently transfected cells. HEK-293 cells express wild-type Keap1 protein and therefore have low constitutive levels of Nrf2 protein and Nrf2-dependent transcription. […] When Keap1 is inhibited, Nrf2 signalling is activated, and there is an increase in luciferase expression and light emission.
Cryopreserved HEK ARE luciferase cells were rapidly thawed in a 37° C. water bath and resuspended in assay culture medium (DMEM, 10% FCS, 2 mM L-glutamine). The cell suspension was pelleted by centrifugation ([…]; 300 g) using a Heraeus benchtop centrifuge. Supernatant was removed and the pellet was gently resuspended in 5 mL culture medium per vial. Cell viability and cell number was measured using an Invitrogen Countess automated cell counter (typical viability 80%), and cells were diluted to a density of 5.0×10^5 cells/mL.
Cells were then plated out into white 384-well plates (Greiner 781080) using a Multidrop Combi, 20 μL/well, to give 10,000 cells/well. As appropriate, test compounds had been added to wells prior to dispensing cells using an Echo 555 acoustic dispenser (Labcyte). Plates were left at room temperature for ˜10 min to promote even cell settling across the plate before incubation for 18 h at 37° C., 95% humidity and 5% CO2.
After 18 h incubation, plates were removed from the incubator and allowed to cool to room temperature for 30 min, before 10 μL per well SteadyGlo reagent detection reagent was added (as per manufacturer's instructions, 10 min before required 10 mL room temperature buffer was added to one vial of lyophilised substrate and inverted several times to fully dissolve). Plates were then incubated in the dark for 30 min before reading on an Envision plate reader.
Compounds were acoustically dispensed using a Labcyte Echo, using a 10 pt dose curve with a top concentration of 100 μM. Assay wells were backfilled with DMSO to a total of 60 nL to maintain 0.3% (v/v) DMSO through the assay.
The Stimulator signal was defined using 30 μM tert-butyl hydroquinone (tBHQ) and the Neutral signal by DMSO vehicle control. All calculations were performed using GeneData.
In IBIS Column Calculations, Assay Type was set to ‘Stimulator’, and the Activity Threshold was set to 50.
The mean values were calculated from anywhere from 1 to 20 individual measurements.
In the case of `COC1(c2ncc(F)cc2F)C=C(C#N)C(=O)C2(CC2)C1` (single isomer, unassigned) [Compound 60, 7-(3,5-difluoropyridin-2-yl)-7-methoxy-4-oxospiro[2.5]oct-5-ene-5-carbonitrile], the 50% effective concentration (EC50) – broadly, the concentration that produces a half-maximal response – came out at 153 nM. With `COC1(c2ncc(Cl)cc2F)C=C(C#N)C(=O)C2(CC2)C1` (single isomer, unassigned) [Compound 61, 7-(5-chloro-3-fluoropyridin-2-yl)-7-methoxy-4-oxospiro[2.5]oct-5-ene-5-carbonitrile] the figure was 79 nM; with `COC1(c2ncc(F)cc2OC(F)F)C=C(C#N)C(=O)C2(CC2)C1` (single isomer, unassigned) [Compound 62, 7-[3-(difluorometh-oxy)-5-fluoropyridin-2-yl]-7-methoxy-4-oxospiro[2.5]oct-5-ene-5-carbonitrile], 15 nM. The value for `COC1(c2ncc(F)cc2C(F)F)C=C(C#N)C(=O)C2(CC2)C1` (single isomer, unassigned) [Compound 63, 7-[3-(difluoromethyl)-5-fluoropyridin-2-yl]-7-methoxy-4-oxospiro[2.5]oct-5-ene-5-carbonitrile] was 18 nM. In the case of `COC1(c2ncccc2C(F)(F)F)C=C(C#N)C(=O)C2(CCCC2)C1` (single isomer, unassigned) [Compound 66, 9-methoxy-6-oxo-9-[3-(trifluoromethyl)pyridin-2-yl]spiro[4.5]dec-7-ene-7-carbonitrile], the EC50 was 126 nM. Against the preceding compound, the EC50 is about 7-fold higher. With `COC1(c2ccc(F)cn2)C=C(C#N)C(=O)C2(CCCC2)C1` (single isomer, unassigned) [Compound 67, 9-(5-fluoropyridin-2-yl)-9-methoxy-6-oxospiro[4.5]dec-7-ene-7-carbonitrile] the figure was 239 nM. `COC1(c2ncc(F)cc2C)C=C(C#N)C(=O)C2(CCCC2)C1` (single isomer, unassigned) [Compound 68, 9-(5-fluoro-3-methylpyridin-2-yl)-9-methoxy-6-oxospiro[4.5]dec-7-ene-7-carbonitrile] came in with an EC50 of 70 nM. With `COC1(c2ncc(F)cc2-c2cnn(C)c2)C=C(C#N)C(=O)C(C)(C)C1` (single isomer, unassigned) [Compound 69, 3-[5-fluoro-3-(1-methyl-1H-pyrazol-4-yl)pyridin-2-yl]-3-methoxy-5,5-dimethyl-6-oxocyclohex-1-ene-1-carbonitrile], the EC50 was 2 nM. This EC50 is about 35-fold lower than that of the compound before. With `COC1(c2ncc(F)cc2-c2ccc(F)cc2)C=C(C#N)C(=O)C(C)(C)C1` (single isomer, unassigned) [Compound 70, 3-[5-fluoro-3-(4-fluorophenyl)pyridin-2-yl]-3-methoxy-5,5-dimethyl-6-oxocyclohex-1-ene-1-carbonitrile] the figure was 15 nM. The value for `COC1(c2ncc(F)cc2-c2cnn(C)c2C)C=C(C#N)C(=O)C(C)(C)C1` (single isomer, unassigned) [Compound 71, 3-[3-(1,5-dimethyl-1H-pyrazol-4-yl)-5-fluoropyridin-2-yl]-3-methoxy-5,5-dimethyl-6-oxocyclohex-1-ene-1-carbonitrile] was 9 nM; that for `COC1(c2ncc(F)cc2-c2cnn(C3CC3)c2)C=C(C#N)C(=O)C(C)(C)C1` (single isomer, unassigned) [Compound 72, 3-[3-(1-cyclopropyl-1H-pyrazol-4-yl)-5-fluoropyridin-2-yl]-3-methoxy-5,5-dimethyl-6-oxocyclohex-1-ene-1-carbonitrile] was 6 nM. With `COC1(c2ncc(F)cc2-c2cnc(C)s2)C=C(C#N)C(=O)C(C)(C)C1` (single isomer, unassigned) [Compound 73, 3-[5-fluoro-3-(2-methyl-1,3-thiazol-5-yl)pyridin-2-yl]-3-methoxy-5,5-dimethyl-6-oxocyclohex-1-ene-1-carbonitrile] the figure was 7 nM.

`COC1(c2ncc(F)cc2-c2cccn(C)c2=O)C=C(C#N)C(=O)C(C)(C)C1` (single isomer, unassigned) [Compound 75, 3-[5-fluoro-3-(1-methyl-2-oxo-3-pyridyl)-2-pyridyl]-3-methoxy-5,5-dimethyl-6-oxo-cyclohexene-1-carbonitrile] gave an EC50 of 36 nM. Take `COC1(c2ncc(F)cc2-c2ccnc(C)c2)C=C(C#N)C(=O)C(C)(C)C1` (single isomer, unassigned) [Compound 76, 3-[5-fluoro-3-(2-methyl-4-pyridyl)-2-pyridyl]-3-methoxy-5,5-dimethyl-6-oxo-cyclohexene-1-carbonitrile]: the concentration for a half-maximal effect (EC50) stood at 3 nM.

`COC1(c2ncc(F)cc2-c2cc(C)nc(C)c2)C=C(C#N)C(=O)C(C)(C)C1` (single isomer, unassigned) [Compound 77, 3-[3-(2,6-dimethyl-4-pyridyl)-5-fluoro-2-pyridyl]-3-methoxy-5,5-dimethyl-6-oxo-cyclohexene-1-carbonitrile]: the response was half-maximal at 4 nM (EC50). This EC50 and that of the compound before are within 1.5-fold of each other. `COC1(c2ncc(F)cc2-c2cn(C)nc2C)C=C(C#N)C(=O)C(C)(C)C1` (single isomer, unassigned) [Compound 78, 3-[3-(1,3-dimethylpyrazol-4-yl)-5-fluoro-2-pyridyl]-3-methoxy-5,5-dimethyl-6-oxo-cyclohexene-1-carbonitrile] returned an EC50 of 2 nM. Compound `COC1(c2ncc(F)cc2-c2cccnc2C)C=C(C#N)C(=O)C(C)(C)C1` (single isomer, unassigned) [Compound 79, 3-[5-fluoro-3-(2-methyl-3-pyridyl)-2-pyridyl]-3-methoxy-5,5-dimethyl-6-oxo-cyclohexene-1-carbonitrile] displayed a 50% effective concentration (EC50) of 74 nM. The compound `COC1(c2ncc(F)cc2-c2cnn(-c3ccccc3)c2)C=C(C#N)C(=O)C(C)(C)C1` (single isomer, unassigned) [Compound 81, 3-[5-fluoro-3-(1-phenylpyrazol-4-yl)-2-pyridyl]-3-methoxy-5,5-dimethyl-6-oxo-cyclohexene-1-carbonitrile] registered a concentration for a half-maximal effect (EC50) of 2 nM. The value for `COC1(c2ncc(F)cc2-c2ccnc(C)c2C)C=C(C#N)C(=O)C(C)(C)C1` (single isomer, unassigned) [Compound 82, 3-[3-(2,3-dimethyl-4-pyridyl)-5-fluoro-2-pyridyl]-3-methoxy-5,5-dimethyl-6-oxo-cyclohexene-1-carbonitrile] was 52 nM; that for `COC1(c2ncc(F)cc2-c2cnn(C3CCCC3)c2)C=C(C#N)C(=O)C(C)(C)C1` (single isomer, unassigned) [Compound 83, 3-[3-(1-cyclopentylpyrazol-4-yl)-5-fluoro-2-pyridyl]-3-methoxy-5,5-dimethyl-6-oxo-cyclohexene-1-carbonitrile] was 70 nM; that for `COC1(c2ncc(F)cc2-c2cncc(F)c2)C=C(C#N)C(=O)C(C)(C)C1` (single isomer, unassigned) [Compound 84, 3-[5-fluoro-3-(5-fluoro-3-pyridyl)-2-pyridyl]-3-methoxy-5,5-dimethyl-6-oxo-cyclohexene-1-carbonitrile] was 6 nM. The value for `COC1(c2ncc(F)cc2-c2cncc(C#N)c2)C=C(C#N)C(=O)C(C)(C)C1` (single isomer, unassigned) [Compound 85, 2′-(3-cyano-1-methoxy-5,5-dimethyl-4-oxocyclohex-2-enyl)-5′-fluoro-3,3′-bipyridine-5-carbonitrile] was 6 nM.
